Data taken from the NIST ThermoML archive (doi:10.1021/je400471m).
± gives the expanded uncertainty stated by the source.

What was measured:
[1] = refractive index (Na D-line) (dimensionless); wn = mass fraction of the nth substance listed; conditions: 338.15 K, 98 kPa, Liquid, Standard Abbe refractometry
[2] = refractive index (Na D-line) (dimensionless); conditions: 338.15 K; 98 kPa; Liquid; Standard Abbe refractometry

SMILES: O=C(CO)[C@@H](O)[C@H](O)[C@H](O)CO [D-fructose] + O
- refractive index ([1]; w1 = 0.2189): 1.3687 ± 0.0096
- refractive index ([1]; w1 = 0.3592): 1.3945 ± 0.0096
- refractive index ([1]; w1 = 0.4567): 1.4159 ± 0.0096
- refractive index ([1]; w1 = 0.5286): 1.4339 ± 0.0096
- refractive index ([1]; w1 = 0.5759): 1.4393 ± 0.0096
- refractive index ([1]; w1 = 0.579): 1.4413 ± 0.0096
- refractive index ([1]; w1 = 0.5836): 1.4428 ± 0.0096

SMILES: CCO [ethanol] + O
- refractive index ([1]; w1 = 0.2): 1.3363 ± 0.0096
- refractive index ([1]; w1 = 0.4): 1.3415 ± 0.0096
- refractive index ([1]; w1 = 0.6): 1.3569 ± 0.0096
- refractive index ([1]; w1 = 0.9): 1.3587 ± 0.0096

SMILES: O [water]
- refractive index [2]: 1.323 ± 0.0096
